Laboratory results reported in US11744843B2, “Identification and treatment of T-cell epitopes of short H2A oncohistones” (Fred Hutchinson Cancer Research Center, priority 2020, dated 2023).
“Also recorded” adds a separate entry of the source.

What was measured:
Format in all cases: cell-based
[1] = tested on: diffuse large B-cell lymphoma cell line (A3/Kawakami); assay: Western blot of cleaved PARP, γ-H2A.X and tubulin after drug treatment, diffuse large B-cell lymphoma cell line A3/Kawakami; conditions: compared with etoposide and doxorubicin
Protocol: FIGS. 13A to 13B. […] FIG. 13A illustrates a Western blot gel as described in FIG. 11A. FIG. 13B illustrates graphs of the relative band intensity taken from the Western blot as described in FIG. 11B.
(§1) In FIGS. 12 and 13, similar experiments were performed to compare the cytotoxicity of aclarubicin to etoposide and doxorubicin in additional lymphoma cell lines. In FIG. 12, the compounds cytotoxicity and side effects were assessed in the Hodgkin's lymphoma cell line, L-428. In FIG. 13, the compounds cytotoxicity and side effects were assessed in the diffuse large B-cell lymphoma cell line, A3/KAW.

[2] = tested on: Hodgkin's lymphoma cell line (L-1236); assay: Western blot of cleaved PARP, γ-H2A.X and tubulin after drug treatment, Hodgkin's lymphoma cell line L-1236
Protocol: FIGS. 11A to 11B. […] FIG. 11A illustrates a Western blot gel depicting marker expression following a 72 hour treatment with aclarubicin, etoposide, and doxorubicin. The markers are listed on the y-axis. The specific agents and amounts were added according to the labeling on the x-axis, which is fully described in the figure legend. FIG. 11B illustrates graphs of the relative band intensity taken from the Western blot and plotted according to drug concentration. The band intensity of PARP was used as an indicator of agent cytotoxicity. The band intensity of γ-H2A.X was used as an indicator of DNA damage (side effect). The band intensity of tubulin was used as a control.
(§2) FIG. 11A is a Western blot gel assessing expression of the markers listed on the y-axis. The specific cancer therapeutics and the amounts used are indicated by the numbers along the x-axis and the corresponding figure legend. In this Example, aclarubicin's cytotoxicity on lymphoma cells was assessed by determining the amount of cleaved PARP, which was assessed as band intensity (FIG. 11B) from the Western blot (FIG. 11A). In this Example, aclarubicin's corresponding DNA damage was assessed by measuring the amount of γ-H2A.X, which was assessed as band intensity (FIG. 11B) from the Western blot (FIG. 11A).

[3] = tested on: Hodgkin's lymphoma cell line (L-428); assay: Western blot of cleaved PARP, γ-H2A.X and tubulin after drug treatment, Hodgkin's lymphoma cell line L-428
Protocol: FIGS. 12A to 12B. […] FIG. 12A illustrates a Western blot gel as described in FIG. 11A. FIG. 12B illustrates graphs of the relative band intensity taken from the Western blot as described in FIG. 11B.
as §1

lymphoma cells = assay: Western blot of cleaved PARP and γ-H2A.X, summary over the three lymphoma cell lines (FIGS. 11-13)
Protocol: as §2, §1

[4] = L-1236, 72 hour treatment, 100 nM to 5.0 μM, compared with etoposide and doxorubicin
[5] = L-428, 72 hour treatment, compared with etoposide and doxorubicin

## CC[C@@]1(O)C[C@H](O[C@H]2C[C@H](N(C)C)[C@H](O[C@H]3C[C@H](O)[C@H](O[C@H]4CCC(=O)[C@H](C)O4)[C@H](C)O3)[C@H](C)O2)c2c(cc3c(c2O)C(=O)c2c(O)cccc2C3=O)[C@H]1C(=O)OC [aclarubicin]
[1]; A3/KAW
  cytotoxicity and side effects (relative band intensities): best combination of anti-neoplastic activity while having fewer harmful side effects
[1]; A3/Kawakami, 72 hour treatment
  DNA damage (band intensity of γ-H2A.X, side effect): minimizing DNA damage
  apoptosis / cytotoxicity (band intensity of PARP): maximizes apoptosis
[2]; [4]
  DNA damage (band intensity of γ-H2A.X, side effect): minimizing DNA damage
  apoptosis / cytotoxicity (band intensity of PARP): maximizes apoptosis
[2]; L-1236, compared with etoposide and doxorubicin
  relative band intensity of PARP/tubulin, PARP/γ-H2A.X and γ-H2A.X/Tubulin: best combination of anti-neoplastic activity while having fewer harmful side effects
[3]; [5]
  DNA damage (band intensity of γ-H2A.X, side effect): minimizing DNA damage
  apoptosis / cytotoxicity (band intensity of PARP): maximizes apoptosis
[3]; L-428, compared with etoposide and doxorubicin
  cytotoxicity and side effects (relative band intensities): best combination of anti-neoplastic activity while having fewer harmful side effects
Lymphoma cells; FIGS. 11-13, compared with doxorubicin or etoposide
  DNA damage as measured by γ-H2A.X; side effect profile: much less DNA damage; also recorded: much more favorable side effect profile than doxorubicin
Lymphoma cells; FIGS. 11-13, three lymphoma cell lines
  killing of lymphoma cells as measured by cleaved PARP; anti-neoplastic activity: efficiently kills lymphoma cells; also recorded: more anti-neoplastic activity than etoposide
